# Data published in patent US20070254882A1, “Sulfamide Derivatives and Pharmaceutical Composition for Upregulation of Lipid Metabolism Comprising Same” (CRYSTAL GENOMICS, INC., priority 2004, published 2007).
# Assays:
# human PPAR α [1] = biological target: T1, human PPAR α (Homo sapiens, UniProt Q07869); test: Exogeneous PPAR α agonist assay (GAL4 DNA binding domain/PPAR α ligand binding domain, luciferase) in HepG2 cells; assay type: cell-based; conditions: 25 μM compound, 48 hours, luciferase activity increase relative to the control
# T1 construct: expressed in transfected cells; host or cells: HepG2 (ATCC HB-8065) or 293T cells (ATCC CRL-1573)
# T1 sequence (Q07869 239-466 limits assumed): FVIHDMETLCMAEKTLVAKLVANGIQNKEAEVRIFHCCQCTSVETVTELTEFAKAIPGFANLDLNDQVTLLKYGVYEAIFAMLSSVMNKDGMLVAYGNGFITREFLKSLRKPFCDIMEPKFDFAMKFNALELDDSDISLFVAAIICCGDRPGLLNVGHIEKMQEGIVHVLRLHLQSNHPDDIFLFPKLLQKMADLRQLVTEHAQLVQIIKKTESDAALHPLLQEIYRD
# Protocol: Step 1) Exogeneous PPAR α Agonist Assay
# Cross-activation assay of the compounds of Examples 1 to 134 against human PPAR α was carried out using a DNA construct of PPAR α including its ligand binding domain and GAL4 DNA binding domain (Sher et al., Biochemistry 32, 5598-5604, 1993) to analyze whether any of the compounds binds to the ligand binding domain of PPAR α expressed by the construct to affect the PPAR α activity. When the GAL4 DNA binding domainm which is fused with PPAR α ligand binding domain, binds to UAS (upstream activation sequence) of firefly-luciferase, the luciferase is expressed. Therefore, the effect of each of the compounds of Examples on PPAR α activation can be evaluated by analyzing the activation of luciferase.
# Specifically, 2×10^4 of HepG2 (ATCC HB-8065) or 293T cells (ATCC CRL-1573) were aliquotted into each well of a 96-well plate and cultured for overnight at 37° C. in a CO2 incubator (culture condition: DMEM, 10% FBS and 1% antibiotics).
# The transformation of PPAR α DNA was traced as follows. First, a mixture of the following ingredients in amounts per well; Solution A (Promega) containing 50 ng of full length human PPAR α DNA, 50 ng of firefly-luciferase construct, 5 ng of Renilla-luciferase construct, 1.0 μl of PLUS™ reagent, and 8.3 μl of a serum-free medium containing no antibiotics; was prepared and kept at room temperature for 15 min. Solution B, which contained 0.5 μl of Lipofectamine™ reagent and 9.5 μl of serum-free medium without antibiotics per well, and Solution C, which contained 50 μl of serum-free medium per well), were prepared. Solutions A, B and C were mixed together to prepare lipofectamin-DNA complex, and the mixture was kept at room temperature for 15 min. Single layer of cells on each well of a 96-well plate were washed with serum-free DMEM, 70 μl of lipofectamine-DNA complex prepared above was added thereto, the plate was incubated at 37° C. in a 5% CO2 incubator for 3 hours to transform the cells, and […] of a diluted solution of each of the compounds of Examples 1 to 134 per well was added to each well to a final concentration 25 μM, and incubated at 37° C. in a CO2 incubator for 48 hours. Then, the medium was removed, 50 μl of passive lysis buffer (Promega) was added thereto, and the plate was shook at room temperature for 20 min to lysis cells. 40 μl of Luciferase Assay reagent of Dual Luciferase Kit […] per 20 μl of cell lysis buffer was added to the plate, followed by reacting at 20° C. for 8 seconds, and 40 μl of Stop & Glo reagent (Promega) as a stop solution was added thereto to quench the reaction. The luminescence intensities of F-luciferase and R-luciferase were measured with MicroLumat Plus (Berthord Technology).
# human PPAR α [2] = biological target: T1, human PPAR α; test: Exogeneous PPAR α agonist assay (GAL4 DNA binding domain/PPAR α ligand binding domain, luciferase) in 293T cells; assay type: cell-based; set-up: scale not given here; conditions: 25 μM compound, 48 hours, luciferase activity increase relative to the control
# How it was run: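 HepG2 or 293T cells (2×10^4/well) lipofectamine-transfected 3 hours with PPAR α, UAS firefly-luciferase and Renilla-luciferase constructs. Compounds then added at 25 μM final and incubated 48 hours at 37° C. PPAR α activation measured as dual firefly/Renilla luciferase luminescence.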
Activity at 25 μM Step 1 HepG2 cell (human PPAR α [1]),Activity at 25 μM Step 1 293T cell (human PPAR α [2]),SMILES
36,4,"Cc1ccc(-c2nc(COc3cccc(CN(CCC(=O)O)S(=O)(=O)N(C)C)c3)c(C)o2)cc1 [Example 130, 3-[N—(N,N-dimethylamino)sulfonyl-N-[3-[(5-methyl-2-p-tolyloxazol-4-yl)methoxy]benzyl]amino]propionic acid]"
25,2,"CCN(CC)S(=O)(=O)N(CC(=O)O)C(C)c1cccc(OCc2nc(-c3ccc(C)cc3)oc2C)c1 (stereo not shown) [Example 128, [N—(N,N-diethylamino)sulfonyl-N-[1-[[3-(5-methyl-2-p-tolyloxazol-4-yl)methoxy]phenyl]ethyl]amino]acetic acid]"
54,3,"CCN(CC)S(=O)(=O)N(CC(=O)O)Cc1cccc(OCc2nc(-c3ccc(C(F)(F)F)cc3)oc2C)c1 [Example 7, [N—(N,N-diethylamino)sulfonyl-N-[3-[[2-(4-trifluoromethylphenyl)-5-methyloxazol-4-yl]methoxy]benzyl]amino]acetic acid]"
11,2,"Cc1oc(-c2ccc(C(F)(F)F)cc2)nc1CCOc1cccc(CN(CC(=O)O)S(=O)(=O)N(C)C(C)C)c1 [Example 68, [N—(N-isopropyl-N-methylanmo)sulfonyl-N-[3-[2-[2-(4-trifluoromethylphenyl)-5-methyloxazol-4-yl]ethoxy]benzyl]amino]acetic acid]"
52,3,"C=CCN(C)S(=O)(=O)N(CC(=O)O)Cc1cccc(OCc2nc(-c3ccc(C(F)(F)F)cc3)oc2C)c1 [Example 9, [N—(N-allyl-N-methylamino)sulfonyl-N-[3-[[2-(4-trifluoromethylphenyl)-5-methyloxazol-4-yl]methoxy]benzyl]amino]acetic acid]"
32,5,"CN(C)S(=O)(=O)N(CC(=O)O)Cc1ccc(OCCc2coc(-c3ccccc3)n2)cc1 [Example 132, [N—(N,N-dimethylamino)sulfonyl-N-[4-[(2-phenyloxazol-4-yl)ethoxy]benzyl]amino]acetic acid]"
29,4,"Cc1ccc(-c2nc(CCOc3ccc(CN(CC(=O)O)S(=O)(=O)N(C)c4cccc(F)c4)cc3)c(C)o2)cc1 [Example 113, [N—[N-(3-fluorophenyl)-N-methylamino]sulfonyl-N-[4-[2-[2-(4-methylphenyl)-5-methyloxazol-4-yl]ethoxy]benzyl]amino]acetic acid]"
44,2,"Cc1oc(-c2ccc(C(F)(F)F)cc2)nc1CCOc1cccc(CN(CC(=O)O)S(=O)(=O)N2CCCCC2)c1 [Example 71, [N-(piperidinyl)sulfonyl-N-[3-[2-[2-(4-trifluoromethylphenyl)-5-methyloxazol-4-yl]ethoxy]benzyl]amino]acetic acid]"
62,4,"Cc1ccc(-c2nc(COc3cccc(C(C)N(CC(=O)O)S(=O)(=O)N(C)C)c3)c(C)o2)cc1 (stereo not shown) [Example 126, [N—(N,N-dimethylamino)sulfonyl-N-[1-[[3-(5-methyl-2-p-tolyloxazol-4-yl)methoxy]phenyl]ethyl]amino]acetic acid]"
25,6,"Cc1ccc(-c2nc(COc3cccc(CN([C@H](C(=O)O)C(C)C)S(N)(=O)=O)c3)c(C)o2)cc1 [Example 2, (S)-3-methyl-2-[N-(sulfamoyl)-N-[3-[(5-methyl-2-p-tolyloxazol-4-yl)methoxy]benzyl]amino]butyric acid]"
50,3,"Cc1ccc(-c2nc(COc3cccc(C(C)N(CC(=O)O)S(=O)(=O)N4CCCC4)c3)c(C)o2)cc1 (stereo not shown) [Example 127, [N-(pyrrolidinyl)sulfonyl-N-[1-[[3-(5-methyl-2-p-tolyloxazol-4-yl)methoxy]phenyl]ethyl]amino]acetic acid]"
49,4,COc1ccc(N(C)S(=O)(=O)N(CC(=O)O)Cc2cccc(OCc3nc(-c4ccc(C(F)(F)F)cc4)oc3C)c2)cc1 [Example 22]
41,5,"CN(C)S(=O)(=O)N(CC(=O)O)Cc1cccc(OCCc2coc(-c3ccccc3)n2)c1 [Example 131, [N—(N,N-dimethylarino)sulfonyl-N-[3-[(2-phenyloxazol-4-yl)ethoxy]benzyl]amino]acetic acid]"
43,3,"Cc1ccc(-c2nc(COc3cccc(C(C)N(CC(=O)O)S(=O)(=O)N(C)C(C)C)c3)c(C)o2)cc1 (stereo not shown) [Example 129, [N—(N-isopropyl-N-methylamino)sulfonyl-N-[1-[[3-(5-methyl-2-p-tolyloxazol-4-yl)methoxy]phenyl]ethyl]amino]acetic acid]"
45,3,"C#CCN(C)S(=O)(=O)N(CC(=O)O)Cc1cccc(OCc2nc(-c3ccc(C(F)(F)F)cc3)oc2C)c1 [Example 10, [N—(N-methyl-N-propargylamino)sulfonyl-N-[3-[[2-(4-trifluoromethylphenyl)-5-methyloxazol-4-yl]methoxy]benzyl]amino]acetic acid]"
30,5,"CCN(c1cccc(C)c1)S(=O)(=O)N(CC(=O)O)Cc1cccc(OCCc2nc(-c3ccc(C(F)(F)F)cc3)oc2C)c1 [Example 80, [N—(N-ethyl-N-m-tolylamino)sulfonyl-N-[3-[2-[2-(4-trifluoromethylphenyl)-5-methyloxazol-4-yl]ethoxy]benzyl]amino]acetic acid]"
34,5,"Cc1oc(-c2ccc(C(F)(F)F)cc2)nc1COc1cccc(CN(CC(=O)O)S(=O)(=O)N(C)c2cccc(F)c2)c1 [Example 23, [N—[N-(3-fluorophenyl)-N-methylamino]sulfonyl-N-[3-[[2-(4-trifluoromethylphenyl)-5-methyloxazol-4-yl]methoxy]benzyl]amino]acetic acid]"
40,2,"C=CCN(C)S(=O)(=O)N(CC(=O)O)Cc1cccc(OCCc2nc(-c3ccc(C(F)(F)F)cc3)oc2C)c1 [Example 69, [N—(N-allyl-N-methylamino)sulfonyl-N-[3-[2-[2-(4-trifluoromethylphenyl)-5-methyloxazol-4-yl]ethoxy]benzyl]amino]acetic acid]"
33,3,"CCN(CC)S(=O)(=O)N(CC(=O)O)Cc1cccc(OCCc2nc(-c3ccc(C)cc3)oc2C)c1 [Example 63, [N—(N,N-diethylamino)sulfonyl-N-[3-[2-[2-(4-methylphenyl)-5-methyloxazol-4-yl]ethoxy]benzyl]amino]acetic acid]"
40,5,"CCN(c1cccc(C)c1)S(=O)(=O)N(CC(=O)O)Cc1cccc(OCc2nc(-c3ccc(C(F)(F)F)cc3)oc2C)c1 [Example 21, [N—(N-ethyl-N-m-tolylamino)sulfonyl-N-[3-[[2-(4-trifluoromethylphenyl)-5-methyloxazol-4-yl]methoxy]benzyl]amino]acetic acid]"
